One data set relates to MC38-hPD-L1 tumor. Put plainly: MC38-hPD-L1 tumor model in C57BL/6 mice. It counts as in vivo, mouse. To be noted: for animals that achieved complete regression: 10 mice in each group, compounds 30 mg/kg orally b.i.d., antibody i.p. twice a week. As for the experimental part:
Generation and culture of MC38-hPD-L1 cells: The compounds are only known to cross-react with human PD-L1, therefore a syngeneic tumor model with […] MC-38 colon tumor cells expressing human PD-L1 (MC38-hPD-L1 tumor model) was used. The MC38-hPD-L1 cells were generated by GenOway. Endogenous mouse PD-L1 was first knocked out in MC38 cells using CRISPR technology, then human PDL1 was stably transfected in these mouse PD-L1 Knock-out MC38 cells. The MC38-hPD-L1 cells were cultured under standard conditions for MC38 cells (DMEM with 10% fetal bovine serum and Penicillin/Streptomycin) with G418 for maintaining transgene expression. 2 days prior to inoculation of these cells to mice, cells were trysinized and seeded without antibiotics.
(§1) In Vivo Studies: 8-week-old, female C57BL/6 mice were injected s.c. with 5×10^5 MC38-hPD-L1 cells in the right flank. 9 days after tumor inoculation mice were randomly assigned to treatment groups based on tumor size. Only mice that developed measurable tumors were enrolled in the studies. Anti-PD-L1 (Durvalumab) or isotype control was given i.p. twice a week at 100 ug per mouse per dose for 2 weeks. Compound 2.001 and Compound 2.002 suspended in 1% HPMC was dosed p.o. daily at indicated doses, dosing volume 100 μl per mouse. The vehicle, 1% HPMC, was dosed at the same volume with the same frequency for control animals.
Tumor volume was measured three times per week using a digital caliper and calculated as (width^2*length/2). Mice were sacrificed when tumor volumes reached 2,000 mm^3 in accordance with IACUC guidelines.
Tumor width (W) and length (L) were measured with calipers 3 times a week and the tumor volume was calculated using the formula V=(W (2)×L)/2. When tumors reach 2000 mm^3 mice were sacrificed and tumor excised for further analysis.

Data set [1] deals with T1, PD-L1 (Homo sapiens (Human), UniProt Q9NZQ7). Put plainly: PD-L1 Internalization Assay (surface PD-L1 by flow cytometry). To be noted: 37° C. It counts as cell-based. As for the experimental part: Internalization Assay: MC38-hPD-L1 cells (GenOway S.A., France) and RKO cells (ATCC) growing at 37° C. in 5% CO2 were detached, resuspended in cold FACS buffer (PBS 1× with 10% FBS and 0.1% azide) and added to 96-well assay plates (V-Bottom) (Axygen, Union City, CA) at a concentration of 10×10^4 cells/well. ChemoCentryx compounds or anti-human PD-L1 antibody (AZ Medi4736 analog) were added to the wells at different concentrations and incubated for 2 hours at 37° C. or 4° C. Cells were washed twice with iced cold FACS buffer and stained with recombinant rabbit monoclonal anti human PD-L1 antibody ([28-8] (PE) (ab209962), Abcam) or recombinant rabbit monoclonal IgG Isotype control ([EPR25A] (PE) (ab209478), Abcam) for 30 minutes on ice. Cells were washed twice with FACS buffer before performing FACS analysis. Data were analyzed using FlowJo software.
Target sequence in this assay (Q9NZQ7 19-290): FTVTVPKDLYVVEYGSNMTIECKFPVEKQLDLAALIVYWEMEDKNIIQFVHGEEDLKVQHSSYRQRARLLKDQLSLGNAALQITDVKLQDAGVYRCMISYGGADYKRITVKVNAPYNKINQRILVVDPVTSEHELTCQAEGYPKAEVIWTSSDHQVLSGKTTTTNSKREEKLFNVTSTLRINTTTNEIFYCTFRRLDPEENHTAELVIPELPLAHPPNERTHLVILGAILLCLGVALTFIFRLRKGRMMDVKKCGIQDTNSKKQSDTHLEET

For data set [2], the system named is tumor infiltrating CD8+ and CD4+ T cells. Briefly: Cellular phenotyping of tumor infiltrates in MC38-hPD-L1 tumor model. The data set is classed as in vivo, mouse. Conditions: MC38-hPD-L1 tumors. As for the experimental part: (§2) Cellular phenotyping of tumor infiltrates: Excised tumors were finely chopped with a blade and meshed through 200 um sieve. Cells were then filtered through a […] sieve. Cells were washed and resuspended in FACS buffer (PBS 1× with 10% FBS and 0.1% azide).
(§3) Antibodies for flow cytometry were obtained from BioLegend (San Diego, CA). Flow cytometer panel included CD45 in FITC, PD-L1 in PE, CD8 in APC, CD4 in APC-Cy7. Flow cytometry data were acquired with a FACSCanto II (BD Biosciences, San Jose, CA) cytometer and analyzed using FlowJO v10.2 (FlowJo, Ashland, OR)

The subject of a further data set is PD-1/PD-L1 interaction. Briefly: PD-1/PD-L1 Blockade Cell-based Assay (NFAT luciferase reporter, CHO PD-L1 + Jurkat PD-1). To be noted: Homo sapiens; CHO PD-L1 / Jurkat PD-1 co-culture; read-out: average EC50, NFAT promoter-driven luciferase expression.
The target of data set [3] is T1, PD-L1. Briefly: PD-L1 occupancy on cells isolated from MC38-hPD-L1 tumors (flow cytometry). It counts as in vivo, mouse. To be noted: cells from treated MC38-hPD-L1 tumors. As for the experimental part: as §2, §3
Target sequence in this assay (Q9NZQ7 19-290): as above
To examine the extent Compound 2.001 occupys PD-L1 on tumor cells, we utilized another PD-L1 detection antibody to stain the cells isolated from these tumors.

The test system of a further data set is human T cells. Put plainly: Mixed Lymphocyte Reaction (MLR), IFNgamma release. It counts as cell-based. Conditions: for EC50: Homo sapiens, T-cell, T cells from different donors, read-out: EC50, release of INFgamma from human T cells. The source says:
PBMCs Isolation: Peripheral blood mononuclear cells (PBMCs) were isolated from buffy coat from LRS chambers (leukoreduction systems) from healthy donors by density gradient centrifugation using StemCell SepMate™-50 tubes ([…] Technologies, Vancouver, CA) containing Ficoll-Paque Plus (Sigma Aldrich Inc., St. Louis, MO).
Generation of monocyte derived dendritic cells: CD14^+ monocytes were isolated from PBMCs by magnetic separation using human CD14^+ MicroBeads (MACS Miltenyi Biotech, Bergisch Gladbach, Germany) and an autoMACS® Pro Separator. Isolated monocytes were plated at a concentration of 1×10^6 cells/ml and differentiated to dendritic cells by adding GM-CSF (100 ng/ml) and IL-4 (50 ng/ml) for 6 days. Fresh media with cytokine supplement were added on day 0 and day 2. Mature dendritic cells were induced on day 6 by addition of IL-6 (2000 IU/ml), IL-1B (400 IU/ml) (Peprotech, Inc. Rocky Hill, NJ), TNFalpha (2000 IU/ml) and PGE2 (2 ug/ml) (Sigma Aldrich, Inc.) and cultured for 24 hours.
Preparation of human effector cells: CD4^+ T-Cells were isolated from PBMCs by magnetic separation using human CD4^+ MicroBeads (MACS Miltenyi Biotech) and an autoMACS® Pro Separator.
Mixed Lymphocyte Reaction (MLR): DC and CD4^+T-Cells from unmatched donors were cultured together in a ratio of 1:10 for 5 days in 96 well-flat bottom plates (Thermo Scientific). Test compounds were added as indicated at starting concentration of 1 μM with 1:4 dilutions with DMSO. PD-L1 antibody (AZ Medi4736 analog) and isotype control (Human IgG1, Kappa Isotype Control) (CrownBio, Beijing) were used as positive and negative control respectively. Supernatants were harvested after 5 days of incubation and detection of human IFNg was performed by ELISA using Human IFN-gamma DuoSet ELISA (R&D Systems, Minneapolis) as per manufacturer's instructions.

In the next data set the test system is A375-eGFP cells. Briefly: In Vitro Immunotherapy Potency Assay (PBMC-mediated tumor cell killing). It counts as cell-based. Conditions: in the presence of pre-stimulated primary human PBMCs. As for the experimental part: In Vitro Immunotherapy Potency Assay: A375-eGFP-Puro Cells (ATCC) were grown in complete medium (DMEM+10% FBS+P/S 1×) containing lug/ml of puromycin. Human peripheral blood mononuclear cells (hPBMCs) were isolated from buffy coat from LRS chambers (leukoreduction systems) from healthy donors by density gradient centrifugation using StemCell SepMate™-50 tubes ([…] Technologies, Vancouver, CA) containing Ficoll-Paque Plus (Sigma Aldrich Inc., St. Louis, MO). […] Cells were washed twice and re-suspended into regular growth media. 3×10^4 A375-eGFP-Puro cells were seeded in 96-well clear bottom black TC treated plates in a final volume of 100 ul (Corning). Test compounds or anti-human PD-L1 antibody (AZ Medi4736 analog, CrownBio, Beijing) were added to the wells at different concentrations. SEB stimulated hPBMCs were added to the wells at a ratio of E:T (Effector cell: Target Cell) of […]. Mixed cells were incubated for 96 to 120 hours at 37° C. in 5% CO2. Medium was carefully aspired and 100 μl of PBS 1× was added to each well. Fluorescence from A375-eGFP cells was detected using FlexStation 3 plate reader.

Data set [4] deals with human PD-L1 / human PD-1 interaction (Homo sapiens (Human), UniProt Q9NZQ7). Put plainly: PD-1/PD-L1 binding ELISA. As for the experimental part:
96 Well plates were coated with 1 μg/mL of human PD-L1 (obtained from R&D) in PBS overnight at 4° C. The wells were then blocked with 2% BSA in PBS (W/V) with 0.05% TWEEN-20 for 1 hour at 37° C. The plates were washed 3 times with PBS/0.05% TWEEN-20 and the compounds were serial diluted (1:5) in dilution medium and added to the ELISA plates. Human PD-1 and biotin 0.3 μg/mL (ACRO Biosystems) were added and incubated for 1 hour at 37° C. then washed 3 times with PBS/0.05% TWEEN-20. A second block was performed with 2% BSA in PBS (W/V)/0.05% TWEEN-20 for 10 min at 37° C. and the plates were washed 3 times with PBS/0.05% TWEEN-20. Streptavidin-HRP was added for 1 hour at 37° C. then the plates were washed 3 times with PBS/0.05% TWEEN-20. TMB substrate was added and reacted for 20 min at 37° C. A stop solution (2 N aqueous H2SO4) was added. The absorbance was read at 450 nm using a micro-plate spectrophotometer. The results are shown in Table 1: IC50 values are provided as follows: from 1000 to 10,000 nM (+); from 10 up to 1000 nM (++); less than 10 nM (+++).
ELISA: This assay was performed substantially as described in Biological Example 1.

In data set [5] the target is T1, PD-L1. Put plainly: PathHunter PD-L1 Dimerization Assay in U2OS cells. It counts as cell-based. As for the experimental part:
Dimerization Assay PD-L1 protein dimerization was assessed in vitro by chemiluminescent detection using PathHunter® Dimerization assay (DiscoverX, Fremont, CA). The Assay was performed following vendor's protocol. 2×10^4 U2OS cells were plated in 96-well white bottom TC treated plates (Costar, San Jose, CA) in a final volume of 100 ul. ChemoCentryx compounds or anti-human PD-L1 antibody (AZ Medi4736 analog, CrownBio, Beijing) were added to experimental cells at different concentrations and incubated for 16 hours at 37° C. in 5% CO2. 110 ul of PathHunter Flash detection reagent (DiscoverX) was added to each well and incubated for 1 hour at room temperature in the dark. Chemiluminescent signal was measured on a FlexStation 3 plate reader (Molecular Devices, San Jose, CA) at a speed of 100 ms/well.
Target sequence in this assay (Q9NZQ7 19-290): as above
Target sequence in this assay (Q9NZQ7 19-290): as above

Data set [6] in a line: Plasma compound concentration in MC38-hPD-L1 tumor model. The data set is classed as in vivo, mouse. Conditions: trough after 3 days of dosing, oral. As for the experimental part: as §1
Setting [7] is: PD-1/PD-L1 ELISA, class symbols, read-out: ELISA IC50.
The mark [8] stands for this setting: average from multiple assays, read-out: average IC50, inhibition of direct interaction of PD-L1 to PD-1.

“Also recorded” adds a separate entry of the source. Where two headings read alike, the source gives them in different places.

Sequence of human PD-L1 / human PD-1 interaction (Q9NZQ7 19-239): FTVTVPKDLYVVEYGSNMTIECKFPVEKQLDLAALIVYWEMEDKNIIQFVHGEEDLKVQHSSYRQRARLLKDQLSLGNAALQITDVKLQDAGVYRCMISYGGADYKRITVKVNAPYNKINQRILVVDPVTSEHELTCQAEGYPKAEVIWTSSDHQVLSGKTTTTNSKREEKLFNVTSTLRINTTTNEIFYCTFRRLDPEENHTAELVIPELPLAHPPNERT

As to `COc1nc(-c2cccc(-c3cccc(NC(=O)c4cn(C)c(=O)n(C)c4=O)c3C)c2Cl)ccc1CNC[C@@H]1CCC(=O)N1` [Compound 2.001], the “animals that achieved complete regression” value in the data set with MC38-hPD-L1 tumor was found to be 4 animals. Further, on PD-L1 [1], the “surface PD-L1 levels” value is recorded as “profoundly reduces surface PD-L1 levels; also recorded: lower the surface PD-L1 levels”. Also, the “tumor infiltrating CD8+ and CD4+ T cells” value in data set [2] is given as “increased”. Also, the EC50 is 52 nM in the data set with PD-1/PD-L1 interaction and less than 100 nM with human T cells. Moreover, the “PD-L1 occupancy on tumor cells” value on PD-L1 [3] is “near complete PD-L1 occupancy”. Besides, the “release of INFgamma from human T cells” value with human T cells is “dose dependently increase”. In the data set on A375-eGFP cells, the “killing of GFP labeled human cancer cell line A375” value is “promote killing”. The IC50 in data set [4] (setting [7]) is less than 10 nM; in [4] (setting [8]) it was 0.3 nM. In addition, the PD-L1 dimerization signal entry on PD-L1 [5] is given as “strongly induced the dimerization signal; also recorded: induce PD-L1 dimerization”.

`COc1nc(-c2cccc(-c3cccc(NC(=O)c4cn(C)c(=O)n(C)c4=O)c3Cl)c2Cl)ccc1CNC[C@@H]1CCC(=O)N1` [Compound 2.002]: the “mice with complete eradication of the tumors” value in the data set on MC38-hPD-L1 tumor (30 mg/kg (b.i.d.), orally) is recorded as “Eight of the ten”. In addition, the tumor growth result with MC38-hPD-L1 tumor (dosed orally, several doses) is “dose dependently suppresses tumor growth; also recorded: tumor growth suppression in a dose-dependent manner”. Moreover, at PD-L1 [1], the “surface PD-L1 levels” value is listed as “profoundly reduces surface PD-L1 levels; also recorded: lower the surface PD-L1 levels”. Also, the EC50 with PD-1/PD-L1 interaction is 46 nM; in the data set with human T cells, less than 100 nM. Moreover, the “release of INFgamma from human T cells” value in the data set on human T cells is recorded as “dose dependently increase”. The “killing of GFP labeled human cancer cell line A375” value in the data set with A375-eGFP cells is listed as “promote killing”. The plasma compound concentrations entry in data set [6] is “dose-dependency”. The IC50 in data set [4] (setting [7]) is less than 10 nM; in data set [4] (setting [8]), 0.4 nM. In addition, the PD-L1 dimerization signal entry at PD-L1 [5] is given as “strongly induced the dimerization signal; also recorded: induce PD-L1 dimerization”.

Turning to `COc1nc(-c2cccc(-c3cccc(NC(=O)c4cn(C)c(=O)n(C)c4=O)c3C)c2Cl)ccc1CN[C@@H]1CCOC[C@@H]1O` [Compound 2.003], the IC50 in data set [4] (setting [7]) was less than 10 nM.

Durvalumab [reference compound]: the “animals that achieved complete regression” value in the data set with MC38-hPD-L1 tumor was found to be 6 animals. The “surface PD-L1 levels” value with PD-L1 [1] is on record as “no effect”. In addition, in the data set with PD-L1 [5] (listed as anti-PD-L1 antibody), the PD-L1 dimerization signal entry is given as “do not induce such signal”.
